Results on 45 molecules are retold here after PubChem BioAssay (NCI).

The structures appear in SMILES notation. Where “and” joins values, the source holds several entries; their conditions need not be identical. Equal values may be shown once.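 Cells were grown in 96-well plates and exposed to each compound for 48 hours at five concentrations; endpoints were interpolated linearly between bracketing concentrations, or set to the highest concentration if not reached. GI50 = concentration required for 50% inhibition of growth. TGI: concentration producing complete growth inhibition.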

The test system of the experiment is MDA-MB-468 breast. In words: NCI tumour cell line growth inhibition, 48 h.
For the molecule `COc1cc(NCCN=C(N)NC(N)=NC(C)C)c2ncccc2c1`, the GI50 is 162 nM and the TGI worked out at 603 nM.

For `C=C1C(=O)O[C@H]2[C@H]1CC/C(COC(=O)NCCc1c[nH]c3ccc(Cl)cc13)=C\CC[C@@]1(C)O[C@@H]21`, the GI50 was 1650 nM and the TGI came out at 3310 nM. On the same counts, the results for `CC(=O)c1cc(C(=O)c2ccc3c(c2)Sc2ccccc2N3)c2c(C)cccn12` are 175 nM and over 96000 nM. For `O=C(Nc1ccccc1O)c1ccc(NS(=O)(=O)c2cccc3cccnc23)cc1` the same measures were 679 nM and 3750 nM. Consider `CCOC(=O)c1ccc2c(c1)[n+](=O)c(C(C)=O)c(C(F)(F)F)n2[O-]`, for which the GI50 was 1590 nM and the TGI amounted to 3290 nM. For `CCOC(=O)/C=C/C(=O)[C@H](CC(C)C)NC(=O)[C@H](Cc1ccccc1)NC(=O)OCc1ccccc1` the same measures were 2360 nM and 5070 nM. On to `CCCCCCCC(=O)OCC(=O)[C@]1(O)Cc2c(O)c3c(c(O)c2[C@@H](OC2CC(N)C(O)C(C)O2)C1)C(=O)c1c(OC)cccc1C3=O` (some centres undefined), for which the GI50 was 39.8 nM and the TGI worked out at 301 nM. On to `O=C(CC(=O)c1cccc(Cl)c1)c1cccc(Cl)c1`, for which the GI50 was 1770 nM and the TGI was determined as 8760 nM. On the same counts, the results for `COc1ccccc1NS(=O)(=O)c1ccc2oc(SC(C)C)nc2c1` are 2380 nM and 17600 nM. For `COc1ccc(/C=C\c2cc(OC)c(OC)c(OC)c2)cc1OCC(=O)Nc1ccc2nc(C)sc2c1` the same measures were 2390 nM and 14000 nM. For `Cc1cc(Cl)ccc1Nc1nc(C(F)(F)F)ccc1C(=O)N/N=C/c1ccccc1Cl` the same measures were 1880 nM and over 100000 nM.

For `NC(=Nc1ccc(N)cc1)C(N)=Nc1ccc(N)cc1`, the GI50 was over 100000 nM and the TGI is over 100000 nM. Turning to `O=C(Nc1cc(Oc2cc(F)c(NC(=O)C3(C(=O)Nc4ccc(F)cc4)CC3)cc2F)ccn1)C1CC1`, the GI50 is 3170 nM and the TGI is 6140 nM.

Take `COc1cc2c(=O)n(CCN(C)C)c3c4cc5c(cc4ccc3c2cc1OC)OCO5`: the GI50 is 115 nM and the TGI came out at 303 nM. For `Cn1cc(-c2nn3cc(-c4ccncc4)nc3s2)c2cc(Cl)ccc21` the same measures were 2190 nM and 7840 nM. On the same counts, the results for `O=C(NCCNc1nccc(-c2c(-c3cccc(O)c3)nc3sccn23)n1)c1ccccc1` are 3600 nM and 28700 nM. On the same counts, the results for `O=C(/C=C/C12c3ccccc3C(c3ccccc31)C1C(=O)NC(=O)C12)c1ccc(Cl)cc1` (centres undefined) are 1700 nM and 3470 nM. On to `COc1cccc(C2C3=C(COC3=O)N(CCO)c3cc4c(cc32)OCO4)c1` (centres undefined), for which the GI50 was 131 nM. On to `COc1ccc(C2C=C(c3ccc(Cl)cc3)N=C3SC=C(C)N32)c(Br)c1` (centres undefined), for which the GI50 is 1910 nM and the TGI worked out at 6130 nM. On the same counts, the results for `N#CN1CC[C@H](C(=O)Nc2cc3cc(C(N)=O)ccc3cn2)C1` are under 14.6 nM and 28.9 nM. For `CN1CCN(Cc2ccc3c(NNC(=O)c4ccccc4)nc4cc(F)ccc4n23)CC1` the same measures were 237 nM and 1650 nM. Take `C[C@@H]1COCCN1c1cc(C2([S@@](C)(=N)=O)CC2)nc(-c2ccnc3[nH]ccc23)n1`: the GI50 is 2730 nM and the TGI is 25600 nM. For `COc1cc(/C=C/c2cc(/C=C/c3ccc(O)c(OC)c3)n(C(=O)Nc3ccc(Cl)cc3)n2)ccc1O`, the GI50 is 310 nM and the TGI is 1820 nM. As for `CN1CCN(CCOc2cc(OC3CCOCC3)c3c(Nc4c(Cl)ccc5c4OCO5)ncnc3c2)CC1`, the GI50 is 773 nM and 548 nM; the TGI was 3490 nM and 7540 nM. For the molecule `NC(=S)N=Nc1c(O)c2ccccc2c2ccccc12`, the GI50 was 44300 nM and the TGI was over 100000 nM. Consider `Cc1cnc(Nc2ccc(N3CCN(C)CC3)cc2)nc1Nc1ccc(Cl)c(NS(=O)(=O)C(C)(C)C)c1`, for which the GI50 was 153 nM and the TGI came to 2200 nM. For `CCOC(=O)c1c(NCC(=O)Nc2cccc([N+](=O)[O-])c2)sc2c1CCCC2` the same measures were 333 nM and 1430 nM. As to `CCS(=O)(=O)c1ccc(OC)c(Nc2ncc(-c3ccccc3Cl)o2)c1`, the GI50 is 6530 nM and the TGI was 19600 nM.

In the case of `COc1cc(C2C3=C(COC3=O)N(CCO)c3cc4c(cc32)OCO4)cc(OC)c1O` (centres undefined), the GI50 was 819 nM and the TGI turned out to be 2620 nM.

On to `O=S(=O)(Nc1ccc(F)c(Cl)c1)c1ccc(-c2cnc(C3CC3)o2)cc1`, for which the GI50 was 98.2 nM and the TGI is 1630 nM. Consider `Cc1c(C(N)=O)sc2c1c(=O)n(Cc1ccccc1)c1nnc(-c3ccc(Br)cc3)n21`, for which the GI50 was 2040 nM and the TGI was found to be 6940 nM. On the same counts, the results for `Nc1nc(N)c2cc(Sc3cccc(C(F)(F)F)c3)ccc2n1` are 1020 nM and 2550 nM. Turning to `Nc1nc(=O)n([C@@H]2CS[C@H](CO)O2)cc1F`, the GI50 is over 100000 nM and the TGI is over 100000 nM. For the molecule `Cc1ccc(NCCN(C)C)c2c(=O)c3ccccc3sc12`, the GI50 is 1670 nM and the TGI amounted to 3260 nM. Take `C#COc1cccc(Nc2ncnc3cc(NC(=O)[C@H](C)Cl)ccc23)c1`: the GI50 was 11700 nM and the TGI was 61000 nM. For `ClCc1cccc(CSc2ncnc3c2ncn3Cc2cccc(CCl)c2)c1` the same measures were 1300 nM and 2850 nM.

In the case of `c1ccc([As]=[As]c2ccccc2)cc1` (centres undefined), the GI50 was 541 nM and the TGI is 2310 nM. For `O=C(C[P+](c1ccccc1)(c1ccccc1)c1ccccc1)C[P+](c1ccccc1)(c1ccccc1)c1ccccc1` the same measures were 165 nM and 508 nM. As for `Cc1ccc(-c2nc(-c3cn(C)c4ncccc34)cs2)cc1`, the GI50 was 2660 nM and the TGI is 9920 nM. `Cc1cc(Nc2cc(N3CCN(C)CC3)nc(Sc3ccc(NC(=O)C4CC4)cc3)n2)n[nH]1`: the GI50 is 240 nM and the TGI was over 10000 nM. For `CNS(=O)(=O)OCC1OC(n2cnc3c(N)ncnc32)C(O)C1O` (centres undefined) the same measures were 28900 nM and over 100000 nM. For the molecule `Cc1ccc(-c2nc([P+](c3ccccc3)(c3ccccc3)c3ccccc3)c(Nc3ccccc3)o2)cc1`, the GI50 is 232 nM and the TGI was 719 nM.

With `COc1ccc(Cn2cc3c(c2-c2ccccc2)CCc2cnoc2-3)cc1N`, the GI50 was 39 nM and the TGI is 385 nM. As for `COc1cccc(/C(C)=N/NC(=O)CSc2nc3ccccc3c(=O)n2CCc2ccc(S(N)(=O)=O)cc2)c1`, the GI50 was 3160 nM and the TGI turned out to be 8760 nM. For `CCOC(=O)c1cnn2c3ccccc3n(S(=O)(=O)c3ccc(OC)cc3)c12` the same measures were 324 nM and over 100000 nM.
